Results from patent US20260028390A1, “ALPHA1-ANTITRYPSIN FOR USE IN THE TREATMENT OF DISEASES OR DISORDERS OF THE NERVOUS SYSTEM SUCH AS CHRONIC INFLAMMATORY DEMYELINATING POLYNEUROPATHY” (Ageronix SA, priority 2022, published 2026).

Tested on: HMC3-MHCII^Luc cells
Assay: RNAseq differential gene expression / GSEA in AAT-treated resting and IFNγ-activated microglia
Type: cell-based, human
Procedure: • A) Human microglial HMC3-MHCII^Luc cells were plated at day 0, presented IFNγ at day 1 until day 2 and measurement of the luciferase activity and cell viability were done at day 4. • B) AATs were applied from day 0 to day 4 on HMC3-MHCII^Luc cells. Activation was measured by the activity of MHCII-driven luciferase and represented as percentage of IFNγ control for all conditions. All conditions were performed in triplicates, error bars represent standard deviation. • C) Bulk RNA extraction was performed on the same HMC3-MHCII^Luc cultures. Quality control (QC) were applied to RNA before sequencing. QC of the sequencing was done prior to mapping on the human genome. Mapped reads were counted, and differential gene expression was measured between the conditions (see Table 1-10). (FIGS. 3A, 3B and 3C)
RNAseq data from plasma-derived and recombinant AATs were pooled, normalized and analyzed through Gene Set Enrichment Analysis (GSEA) (https://www.gsea-msigdb.org/gsea/index.jsp; Subramanian, A., et al. Proc. Natl. Acad. Sci. USA, 102 (43): 15545-15550, 2005.). […] Importantly, both the IFNγ and inflammatory responses were dampened by AAT. However, the downregulation of the inflammatory response genes in (C) was just under significance.
Tables of genes related to antigen presentation (Table 1), cytokine signaling (Table 2), interferon signaling (Table 3) and complement activation (Table 4). Inflammatory top gene (FC>2; p-value<0.05; left column), were defined by differential expression between untreated and IFNγ-treated cells (inflammation; middle column).
HMC3-MHCII^Luc and HMC3-MHCII^Luc; Ubi^AAT (endogenous AAT) cell lines were seeded into 96-well plates at a density of approximately 2500 cells/well. HMC3-MHCII^Luc cell line was plated and was added plasma-derived AAT and recombinant AATs (produced in CHO cells, AAT 1 and AAT 2) 3h later and at ranged concentration (1; 10 or 25 μM). 24h after, still in the presence of exogenous or endogenous AAT, microglial activation was induced with a 24h-long IFNγ presentation (10 ng/ml). IFNγ was then removed and both HMC3-MHCII^Luc and HMC3-MHCII^Luc; Ubi^AAT cells were cultured for 48h in exogenous or endogenous presence of AAT before cell cultures were beeing assessed for cell viability and activation (See FIGS. 3A, 3B, 3C and 4A,4B, 4C).
RNA samples from plasma-derived AAT and recombinant AAT Nr. 2 were checked for quality (2100 Bioanalyzer, Agilent) and libraries prepared with Truseq RNA Library Kit (Illumina, RS-122-2001). Libraries were sequenced (HiSeq 4000, Illumina) controlled for the quality of sequencing (FastQC), mapped on the human genome (STAR v.2.7.0f; UCSC hg38), reads were counted (HTSeq v0.9.1) and the differential expression analysis was performed with the R/Bioconductor package (edgeR 1.30.1.).

[1] = Inflammation + AAT, AD risk gene
[2] = Inflammation + AAT, MCT*/PN risk gene
[3] = Inflammation + AAT, MS risk gene
[4] = Inflammation + AAT, PD risk gene
[5] = Regulated in AAT (resting condition), antigen presentation
[6] = Regulated in AAT (resting condition), cytokine signalling
[7] = Regulated in AAT (resting condition), interferon signaling
[8] = head prints AAT (right block), GBS risk gene
[9] = inflammation + AAT, antigen presentation
[10] = inflammation + AAT, complement activation
[11] = inflammation + AAT, cytokine signalling
[12] = inflammation + AAT, interferon signaling

## alpha1-antitrypsin (AAT) protein
FC inflammation + AAT, M2 gene
  IGFBP2 expression FC: 1.34
  IL1R1 expression FC: 1.18
  ITGA11 expression FC: 1.54
  KANK2 expression FC: 1.25
  KDM2B expression FC: 1.17
  KIAA1549L expression FC: 1.44
  LDHA expression FC: 1.21
  LOXL2 expression FC: 1.25
  MBOAT7 expression FC: 1.37
  METRN expression FC: 1.64
  MIF expression FC: 1.72
  MMP1 expression FC: 2.39
  MXRA8 expression FC: 1.49
  OLFML2B expression FC: 1.44
  PAPPA expression FC: 1.31
  PLEC expression FC: 1.54
  PLLP expression FC: 1.46
  PREX1 expression FC: 1.28
  PRSS23 expression FC: 1.16
  PTPRS expression FC: 1.23
  RASAL1 expression FC: 1.45
  SEMA3B expression FC: 1.39
  SERPINH1 expression FC: 1.20
  SH3PXD2B expression FC: 1.19
  SLC16A3 expression FC: 1.65
  STC2 expression FC: 1.32
  TBCD expression FC: 1.26
  TCEAL2 expression FC: 1.30
  TGFB1I1 expression FC: 1.26
  TGFBI expression FC: 1.18
  THBS1 expression FC: 1.34
  TNFRSF1B expression FC: 1.23
  ZIC2 expression FC: 2.77
  ZNF319 expression FC: 1.25
[1]
  ABCA7 expression FC: 1.36
  APOE expression FC: 1.55
  BIN1 expression FC: 1.43
  PICALM expression FC: −1.29
  PSEN2 expression FC: 1.28
  TREM2 expression FC: 1.47
[2]
  CCT5 expression FC: −1.13
  DNAJB2* expression FC: 1.20
  DST expression FC: 1.30
  GARS* expression FC: −1.24
  GDAP1* expression FC: −1.24
  HSPB1* expression FC: 1.56
  IGHMBP2* expression FC: 1.21
  INF2 expression FC: 1.35
  KARS* expression FC: −1.13
  LMNA* expression FC: 1.39
  MED25* expression FC: 1.38
  NDRG1* expression FC: 1.30
  SCN9A expression FC: −1.66
  SEPT9 expression FC: 1.29
  TFG* expression FC: −1.19
  TUBB3 expression FC: 1.44
Inflammation + AAT, MCT*/PN risk gene, first TRPV4* line
  TRPV4* expression FC: 1.72
Inflammation + AAT, MCT*/PN risk gene, second TRPV4* line
  TRPV4* expression FC: 1.40
[3]
  AGAP2 expression FC: 1.45
  CYP24A1 expression FC: 1.34
  DKKL1 expression FC: 2.12
  HLA-A expression FC: 1.57
  HLA-DRB1 expression FC: 1.51
  MPHOSPH9 expression FC: −1.19
  NFKBIZ expression FC: −1.37
  SLC30A7 expression FC: −1.56
  ZMIZ1 expression FC: 1.47
[4]
  ATP13A2 expression FC: 1.49
  DNAJC6 expression FC: −1.12
  GBA expression FC: 1.15
  LRP10 expression FC: 1.23
  PINK1 expression FC: 1.20
  PLA2G6 expression FC: 1.37
  SYNJ1 expression FC: −1.23
  UCHL1 expression FC: −1.10
[5]
  NFATC1 expression FC: 1.44
  TRAF6 expression FC: −1.26
Regulated in AAT (resting condition), complement activation
  PLAU expression FC: −1.27
[6]
  BIRC2 expression FC: −1.53
  CEBPG expression FC: −1.31
  MYD88 expression FC: −1.35
  RASGRF2 expression FC: −1.45
  RIPK2 expression FC: −1.30
  SPTBN1 expression FC: −1.21
  STAT1 expression FC: −1.47
  TM7SF3 expression FC: −1.18
  TNFSF9 expression FC: 1.26
  TRAF6 expression FC: −1.26
[7]
  IRF2 expression FC: −1.17
  STAT1 expression FC: −1.47
[8]
  FOS expression FC AAT: −1.54
  GUK1 expression FC AAT: 1.31
  LY96 expression FC AAT: −2.31
  MARCKS expression FC AAT: −1.84
  NFIL3 expression FC AAT: −1.22
  ZNF12 expression FC AAT: −1.23
Human microglial cells, AAT treatment
  genes related to the unfolded protein response (UPR) pathway and cell-survival (GSEA): upregulation
[9]
  CALR expression FC: 1.35
  CTSA expression FC: 1.17
  CTSD expression FC: 1.47
  HLA-DOB expression FC: −4.49
  HLA-DPB1 expression FC: 1.31
  HLA-DRA expression FC: −2.22
  IL1B expression FC: −2.07
  MRC2 expression FC: 1.47
  NFATC2 expression FC: 1.63
  PSMB9 expression FC: −1.23
  PYCARD expression FC: 2.20
  SOCS3 expression FC: 1.20
  TAPBP expression FC: 1.23
[10]
  C3AR1 expression FC: −1.50
  ITGAX expression FC: 1.41
  PLAUR expression FC: 1.32
  SERPINB2 expression FC: −4.63
[11]
  ANXA1 expression FC: −1.33
  ATF3 expression FC: −1.26
  CX3CL1 expression FC: 1.61
  CXCL1 expression FC: −2.09
  CXCL5 expression FC: −2.15
  DUSP6 expression FC: −1.26
  FGF2 expression FC: −1.57
  FSCN1 expression FC: 1.48
  HBEGF expression FC: −1.30
  IL1B expression FC: −2.07
  IL1R1 expression FC: 1.18
  IL18 expression FC: −1.75
  IL27RA expression FC: 1.36
  IL411 expression FC: 1.95
  JAK3 expression FC: 1.43
  MAP2K2 expression FC: 1.51
  MAP2K3 expression FC: 1.37
  MAPK11 expression FC: 1.44
  MAPK12 expression FC: 1.33
  MAPK13 expression FC: 1.23
  NFKBIZ expression FC: −1.37
  PSMB9 expression FC: −1.23
  RASAL1 expression FC: 1.52
  SOCS3 expression FC: 1.20
  STAT5A expression FC: 1.45
  TNFRSF9 expression FC: −2.35
  TRAF2 expression FC: 1.42
[12]
  CD44 expression FC: 1.14
  FLNB expression FC: −1.20
  HLA-DPB1 expression FC: 1.31
  HLA-DRA expression FC: −2.22
  IFIT1 expression FC: −1.78
  IFNAR1 expression FC: −1.63
  IRF3 expression FC: 1.56
  MX1 expression FC: −2.00
  MX2 expression FC: −2.14
  SOCS3 expression FC: 1.20
  USP18 expression FC: −1.76
Top genes FC>2, p-value<0.05, significantly and oppositely regulated
  inflammatory top genes found affected by AAT treatment: ~35%
